# Laboratory results from PubChem BioAssay (NCI).
#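 At the GI50, growth is halved. TGI denotes the concentration required for complete inhibition of growth.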
# Assays:
# Test in all cases: inhibition of tumour cell growth, NCI panel, 384-well format
# PC-3 prostate = test system: PC-3 prostate
# SF-539 CNS = test system: SF-539 CNS
# SF-295 CNS = test system: SF-295 CNS
# OVCAR-3 ovarian = test system: OVCAR-3 ovarian
# RPMI-8226 leukemia = test system: RPMI-8226 leukemia
# BT-549 breast = test system: BT-549 breast
# SK-OV-3 ovarian = test system: SK-OV-3 ovarian
# HL-60(TB) leukemia = test system: HL-60(TB) leukemia
# CAKI-1 renal = test system: CAKI-1 renal
# IGROV1 ovarian = test system: IGROV1 ovarian
# HS 578T breast = test system: HS 578T breast
# SNB-75 CNS = test system: SNB-75 CNS
# SK-MEL-5 melanoma = test system: SK-MEL-5 melanoma
# RXF 393 renal = test system: RXF 393 renal
# ACHN renal = test system: ACHN renal
# MALME-3M melanoma = test system: MALME-3M melanoma
# SF-268 CNS = test system: SF-268 CNS
# OVCAR-5 ovarian = test system: OVCAR-5 ovarian
# SR leukemia = test system: SR leukemia
# MDA-MB-231 breast = test system: MDA-MB-231 breast
# TK-10 renal = test system: TK-10 renal
# UACC-257 melanoma = test system: UACC-257 melanoma
# HCT-116 colon = test system: HCT-116 colon
# SN12C renal = test system: SN12C renal
# KM12 colon = test system: KM12 colon
# OVCAR-8 ovarian = test system: OVCAR-8 ovarian
# T-47D breast = test system: T-47D breast
# MCF7 breast = test system: MCF7 breast
# U251 glioblastoma = test system: U251 glioblastoma
# NCI-H226 lung = test system: NCI-H226 lung
# MDA-MB-435 melanoma = test system: MDA-MB-435 melanoma
# HCC-2998 colon = test system: HCC-2998 colon
# K-562 leukemia = test system: K-562 leukemia
# MOLT-4 leukemia = test system: MOLT-4 leukemia
# HOP-62 NSCLC = test system: HOP-62 NSCLC
# HOP-92 NSCLC = test system: HOP-92 NSCLC
# SW-620 colon = test system: SW-620 colon
# SK-MEL-2 melanoma = test system: SK-MEL-2 melanoma
# NCI/ADR-RES ovarian = test system: NCI/ADR-RES ovarian
# SNB-19 CNS = test system: SNB-19 CNS
# HT29 colon = test system: HT29 colon
# M14 melanoma = test system: M14 melanoma
# NCI-H522 lung = test system: NCI-H522 lung
# CCRF-CEM leukemia = test system: CCRF-CEM leukemia
# NCI-H23 lung = test system: NCI-H23 lung
# DU-145 prostate = test system: DU-145 prostate
# NCI-H322M lung = test system: NCI-H322M lung
# MDA-MB-468 breast = test system: MDA-MB-468 breast
# SK-MEL-28 melanoma = test system: SK-MEL-28 melanoma
# A549 NSCLC = test system: A549 NSCLC
# OVCAR-4 ovarian = test system: OVCAR-4 ovarian
# LOX IMVI melanoma = test system: LOX IMVI melanoma
# HCT-15 colon = test system: HCT-15 colon
# A498 renal = test system: A498 renal
# COLO 205 colon = test system: COLO 205 colon
# 786-0 renal = test system: 786-0 renal
# NCI-H460 NSCLC = test system: NCI-H460 NSCLC
# UACC-62 melanoma = test system: UACC-62 melanoma
# EKVX NSCLC = test system: EKVX NSCLC
smiles,measurement,setting,value
N#Cc1ccc(-c2c(-c3ncn[nH]3)sc(N3CCOCC3)c2C#N)c(F)c1,GI50,PC-3 prostate,0.641 µM
same,TGI,PC-3 prostate,8.87 µM
same,GI50,SF-539 CNS,1.7 µM
same,TGI,SF-539 CNS,20 µM
same,GI50,SF-295 CNS,1.24 µM
same,TGI,SF-295 CNS,15.7 µM
same,GI50,OVCAR-3 ovarian,0.837 µM
same,TGI,OVCAR-3 ovarian,5.83 µM
same,GI50,RPMI-8226 leukemia,1.82 µM
same,TGI,RPMI-8226 leukemia,5.06 µM
same,GI50,BT-549 breast,1.95 µM
same,TGI,BT-549 breast,12.8 µM
same,GI50,SK-OV-3 ovarian,0.315 µM
same,TGI,SK-OV-3 ovarian,5.89 µM
same,GI50,HL-60(TB) leukemia,0.209 µM
same,TGI,HL-60(TB) leukemia,1.44 µM
same,GI50,CAKI-1 renal,0.557 µM
same,TGI,CAKI-1 renal,13.2 µM
same,GI50,IGROV1 ovarian,0.191 µM
same,TGI,IGROV1 ovarian,0.631 µM
same,GI50,HS 578T breast,0.779 µM
same,TGI,HS 578T breast,16 µM
same,GI50,SNB-75 CNS,0.32 µM
same,GI50,SK-MEL-5 melanoma,1.77 µM
same,TGI,SK-MEL-5 melanoma,10 µM
same,GI50,RXF 393 renal,1.27 µM
same,TGI,RXF 393 renal,7.45 µM
same,GI50,ACHN renal,0.525 µM
same,TGI,ACHN renal,14.2 µM
same,GI50,MALME-3M melanoma,0.95 µM
same,TGI,MALME-3M melanoma,6.92 µM
same,GI50,SF-268 CNS,4.1 µM
same,TGI,SF-268 CNS,33 µM
same,GI50,OVCAR-5 ovarian,1.01 µM
same,TGI,OVCAR-5 ovarian,26.1 µM
same,GI50,SR leukemia,0.763 µM
same,TGI,SR leukemia,2.57 µM
same,GI50,MDA-MB-231 breast,5.88 µM
same,TGI,MDA-MB-231 breast,> 62.6 µM
same,GI50,TK-10 renal,0.789 µM
same,TGI,TK-10 renal,9.59 µM
same,GI50,UACC-257 melanoma,2.51 µM
same,TGI,UACC-257 melanoma,15.1 µM
same,GI50,HCT-116 colon,1.52 µM
same,TGI,HCT-116 colon,38.5 µM
same,GI50,SN12C renal,0.145 µM
same,TGI,SN12C renal,3.77 µM
same,GI50,KM12 colon,3.64 µM
same,TGI,KM12 colon,20.3 µM
same,GI50,OVCAR-8 ovarian,3.52 µM
same,TGI,OVCAR-8 ovarian,> 60.2 µM
same,GI50,T-47D breast,0.152 µM
same,TGI,T-47D breast,2.54 µM
same,GI50,MCF7 breast,0.222 µM
same,TGI,MCF7 breast,20.6 µM
same,GI50,U251 glioblastoma,7.2 µM
same,TGI,U251 glioblastoma,> 80.6 µM
same,GI50,NCI-H226 lung,2.01 µM
same,TGI,NCI-H226 lung,17.3 µM
same,GI50,MDA-MB-435 melanoma,2.47 µM
same,TGI,MDA-MB-435 melanoma,19.5 µM
same,GI50,HCC-2998 colon,1.23 µM
same,TGI,HCC-2998 colon,10.8 µM
same,GI50,K-562 leukemia,6.27 µM
same,TGI,K-562 leukemia,> 100 µM
same,GI50,MOLT-4 leukemia,0.413 µM
same,TGI,MOLT-4 leukemia,1.71 µM
same,GI50,HOP-62 NSCLC,3.4 µM
same,TGI,HOP-62 NSCLC,21 µM
same,GI50,HOP-92 NSCLC,1.16 µM
same,TGI,HOP-92 NSCLC,> 33 µM
same,GI50,SW-620 colon,4.94 µM
same,TGI,SW-620 colon,23.6 µM
same,GI50,SK-MEL-2 melanoma,2.64 µM
same,TGI,SK-MEL-2 melanoma,12.6 µM
same,GI50,NCI/ADR-RES ovarian,5.53 µM
same,TGI,NCI/ADR-RES ovarian,63.6 µM
same,GI50,SNB-19 CNS,14.7 µM
same,TGI,SNB-19 CNS,> 70.8 µM
same,GI50,HT29 colon,0.9 µM
same,TGI,HT29 colon,17.9 µM
same,GI50,M14 melanoma,2.95 µM
same,TGI,M14 melanoma,31.8 µM
same,GI50,NCI-H522 lung,1.98 µM
same,TGI,NCI-H522 lung,17.3 µM
same,GI50,CCRF-CEM leukemia,2.21 µM
same,TGI,CCRF-CEM leukemia,9.61 µM
same,GI50,NCI-H23 lung,2.35 µM
same,TGI,NCI-H23 lung,> 55.3 µM
same,GI50,DU-145 prostate,1.91 µM
same,TGI,DU-145 prostate,15.1 µM
same,GI50,NCI-H322M lung,1.32 µM
same,TGI,NCI-H322M lung,5.36 µM
same,GI50,MDA-MB-468 breast,0.54 µM
same,TGI,MDA-MB-468 breast,2.68 µM
same,GI50,SK-MEL-28 melanoma,1.76 µM
same,TGI,SK-MEL-28 melanoma,> 67.9 µM
same,GI50,A549 NSCLC,1.35 µM
same,TGI,A549 NSCLC,11.8 µM
same,GI50,OVCAR-4 ovarian,1.96 µM
same,TGI,OVCAR-4 ovarian,22.1 µM
same,GI50,LOX IMVI melanoma,1.93 µM
same,TGI,LOX IMVI melanoma,13.5 µM
same,GI50,HCT-15 colon,1.69 µM
same,TGI,HCT-15 colon,15.9 µM
same,GI50,A498 renal,0.577 µM
same,TGI,A498 renal,2.67 µM
same,GI50,COLO 205 colon,1.65 µM
same,TGI,COLO 205 colon,17.4 µM
same,GI50,786-0 renal,2.13 µM
same,TGI,786-0 renal,11.5 µM
same,GI50,NCI-H460 NSCLC,0.68 µM
same,TGI,NCI-H460 NSCLC,11.4 µM
same,GI50,UACC-62 melanoma,1.01 µM
same,TGI,UACC-62 melanoma,10.8 µM
same,GI50,EKVX NSCLC,0.368 µM
same,TGI,EKVX NSCLC,3.44 µM
CN1CCN(c2ccc(OC(F)(F)F)c(Nc3ncc4c(n3)-c3c(c(C(N)=O)nn3CCO)CC4)c2)CC1,GI50,PC-3 prostate,0.0438 µM
same,TGI,PC-3 prostate,35.2 µM
same,GI50,SF-539 CNS,0.0308 µM
same,TGI,SF-539 CNS,0.263 µM
same,GI50,OVCAR-3 ovarian,< 0.01 µM
same,TGI,OVCAR-3 ovarian,0.0372 µM
same,GI50,SK-OV-3 ovarian,0.0376 µM
same,TGI,SK-OV-3 ovarian,> 100 µM
same,GI50,HL-60(TB) leukemia,< 0.01 µM
same,TGI,HL-60(TB) leukemia,< 0.01 µM
same,GI50,CAKI-1 renal,0.478 µM
same,TGI,CAKI-1 renal,19.4 µM
same,GI50,IGROV1 ovarian,0.0406 µM
same,TGI,IGROV1 ovarian,15.9 µM
same,GI50,HS 578T breast,0.0202 µM
same,TGI,HS 578T breast,0.0541 µM
same,GI50,SNB-75 CNS,0.064 µM
same,TGI,SNB-75 CNS,4.69 µM
same,GI50,SK-MEL-5 melanoma,0.0115 µM
same,TGI,SK-MEL-5 melanoma,0.121 µM
same,GI50,RXF 393 renal,0.0151 µM
same,TGI,RXF 393 renal,0.0439 µM
same,GI50,ACHN renal,0.554 µM
same,TGI,ACHN renal,19.7 µM
same,GI50,MALME-3M melanoma,0.0685 µM
same,TGI,MALME-3M melanoma,16.7 µM
same,GI50,SF-268 CNS,< 0.01 µM
same,TGI,SF-268 CNS,0.012 µM
same,GI50,OVCAR-5 ovarian,0.0308 µM
same,TGI,OVCAR-5 ovarian,> 100 µM
same,GI50,MDA-MB-231 breast,0.0383 µM
same,TGI,MDA-MB-231 breast,58.1 µM
same,GI50,TK-10 renal,17.3 µM
same,TGI,TK-10 renal,> 100 µM
same,GI50,HCT-116 colon,0.0198 µM
same,TGI,HCT-116 colon,13 µM
same,GI50,SN12C renal,0.546 µM
same,TGI,SN12C renal,15.1 µM
same,GI50,KM12 colon,0.0114 µM
same,TGI,KM12 colon,0.0954 µM
same,GI50,OVCAR-8 ovarian,0.0183 µM
same,TGI,OVCAR-8 ovarian,0.0376 µM
same,GI50,T-47D breast,0.184 µM
same,TGI,T-47D breast,8.33 µM
same,GI50,MCF7 breast,0.0183 µM
same,TGI,MCF7 breast,12.5 µM
same,GI50,NCI-H226 lung,14.8 µM
same,TGI,NCI-H226 lung,56.3 µM
same,GI50,MDA-MB-435 melanoma,0.0108 µM
same,TGI,MDA-MB-435 melanoma,0.0288 µM
same,GI50,HCC-2998 colon,0.0184 µM
same,TGI,HCC-2998 colon,0.0616 µM
same,GI50,MOLT-4 leukemia,0.01 µM
same,TGI,MOLT-4 leukemia,0.0221 µM
same,GI50,HOP-62 NSCLC,0.0252 µM
same,TGI,HOP-62 NSCLC,0.297 µM
same,GI50,HOP-92 NSCLC,0.0739 µM
same,TGI,HOP-92 NSCLC,6.66 µM
same,GI50,SW-620 colon,0.0136 µM
same,TGI,SW-620 colon,0.145 µM
same,GI50,NCI/ADR-RES ovarian,0.325 µM
same,TGI,NCI/ADR-RES ovarian,1.33 µM
same,GI50,SNB-19 CNS,0.0392 µM
same,TGI,SNB-19 CNS,> 100 µM
same,GI50,NCI-H522 lung,< 0.01 µM
same,TGI,NCI-H522 lung,0.0266 µM
same,GI50,CCRF-CEM leukemia,< 0.01 µM
same,TGI,CCRF-CEM leukemia,< 0.01 µM
same,GI50,NCI-H23 lung,0.0139 µM
same,TGI,NCI-H23 lung,0.0377 µM
same,GI50,DU-145 prostate,0.0264 µM
same,TGI,DU-145 prostate,0.104 µM
same,GI50,MDA-MB-468 breast,< 0.01 µM
same,TGI,MDA-MB-468 breast,< 0.01 µM
same,GI50,OVCAR-4 ovarian,6.1 µM
same,TGI,OVCAR-4 ovarian,27.1 µM
same,GI50,HCT-15 colon,0.0561 µM
same,TGI,HCT-15 colon,0.347 µM
same,GI50,A498 renal,0.0871 µM
same,TGI,A498 renal,17.3 µM
same,GI50,786-0 renal,0.0527 µM
same,TGI,786-0 renal,10.3 µM
same,GI50,NCI-H460 NSCLC,0.0178 µM
same,TGI,NCI-H460 NSCLC,0.0377 µM
same,GI50,EKVX NSCLC,0.0936 µM
same,TGI,EKVX NSCLC,19.4 µM
